{
  "source": "patent US20190025313A1",
  "about": "“TREATMENT OF TUMORS INCORPORATING MUTANT ISOCITRATE DEHYDROGENASE” (Agios Pharmaceuticals, Inc., priority 2015, published 2019)",
  "format_in_all_cases": "cell-based",
  "key": {"mIDH2 TF1 cells": {"system": "mIDH2 TF1 cells", "experiment": "Metabolic activity (ATP fold-change) and rescue in mIDH2 TF1 cells", "conditions": "for drop in metabolic activity / rescue of brequinar-induced drop in metabolic activity: Brequinar 2 μM; for drop in metabolic activity: ATP fold-change day 3 over day 0", "description": "(§1) TF1-pLVX (wildtype) cells were pLVX plated at 20 k/ml, 90 μl/well while TF1/R132H27 (mIDH1) and TF1/R140Q11 (mIDH2) cells were plated at 80 k/ml, 90 μl/well in RPMI, 10% FBS, G418 and GM-CSF. Test compound was added on day 0 and CellTiter-Glo, assay (Promega) was performed on day 3/4 and 7. Medium was not changed during 7-day culture.\n(§2) Data was expressed as ATP fold-change: day 3 over day 0."}, "mIDH1 TF1 cells": {"system": "mIDH1 TF1 cells", "experiment": "Metabolic activity (ATP fold-change) and rescue in mIDH1 TF1 cells", "conditions": "for drop in metabolic activity / rescue of brequinar-induced drop in metabolic activity: Brequinar 2 μM; for drop in metabolic activity: ATP fold-change day 3 over day 0", "description": "as §1, §2"}, "[1]": {"system": "TF1/R140Q11 (mIDH2) cells", "experiment": "Proliferation assay (CellTiter-Glo) of mutant IDH2 TF1 cells", "conditions": "Homo sapiens, TF-1, mutant IDH2 (R140Q) TF1 cells, read-out: IC50, inhibition of proliferation", "description": "(§3) Proliferation Assay of Wild Type and Mutant IDH Cell Lines\nas §1"}, "TF1 cells [2]": {"system": "TF1 cells", "experiment": "Proliferation assay, cell line not specified (IC90 at day 7)", "conditions": "Homo sapiens, TF-1, 168 h, cell line not stated", "description": "as §1, §2"}, "[3]": {"system": "TF1/R132H27 (mIDH1) cells", "experiment": "Proliferation assay (CellTiter-Glo) of mutant IDH1 TF1 cells", "conditions": "Homo sapiens, TF-1, mutant IDH1 (R132H) TF1 cells, read-out: IC50, inhibition of proliferation", "description": "as §3, §1"}, "TF1 cells [4]": {"system": "TF1 cells", "experiment": "Metabolic activity (ATP fold-change) in methotrexate treated TF1 cells", "conditions": "FIG. 3", "from_the_text": "Metabolic activity was rescued in mIDH1 and mIDH2 TF1 cells with 3-day folinic acid supplement."}, "[5]": {"conditions": "3-day folinic acid supplement, methotrexate treated, FIG. 3"}, "[6]": {"conditions": "uridine 8 μM, 3-day supplement, FIG. 2A"}},
  "data": [
    {"smiles": "Nc1nc(=O)c2c([nH]1)NCC(CNc1ccc(C(=O)N[C@@H](CCC(=O)O)C(=O)O)cc1)N2C=O", "note": "(mixture of isomers) [folinic acid]", "values": [
      {"measurement": "rescue of methotrexate-induced drop in metabolic activity", "setting": "mIDH2 TF1 cells; [5]", "result": "rescued"},
      {"measurement": "rescue of methotrexate-induced drop in metabolic activity", "setting": "mIDH1 TF1 cells; [5]", "result": "rescued"}
    ]},
    {"smiles": "Cc1c(-c2ccc(-c3ccccc3F)cc2)nc2ccc(F)cc2c1C(=O)O", "note": "[Brequinar, brequinar]", "values": [
      {"measurement": "IC50", "setting": "[1]", "result": 1.6, "unit": "µM"},
      {"measurement": "IC90", "setting": "TF1 cells [2]", "result": "~2", "unit": "µM"},
      {"measurement": "drop in metabolic activity", "setting": "mIDH2 TF1 cells; FIG. 2A", "result": 52, "unit": "%"},
      {"measurement": "drop in metabolic activity", "setting": "mIDH2 TF1 cells; FIG. 2B", "result": 47, "unit": "%"},
      {"measurement": "IC50", "setting": "[3]", "result": 1.3, "unit": "µM"},
      {"measurement": "drop in metabolic activity", "setting": "mIDH1 TF1 cells; FIG. 2A", "result": 73, "unit": "%"},
      {"measurement": "drop in metabolic activity", "setting": "mIDH1 TF1 cells; FIG. 2B", "result": 77, "unit": "%"}
    ]},
    {"smiles": "CN(Cc1cnc2nc(N)nc(N)c2n1)c1ccc(C(=O)N[C@@H](CCC(=O)O)C(=O)O)cc1", "note": "[methotrexate]", "values": [
      {"measurement": "metabolic activity expressed as ATP fold-change (day 3 over day 0)", "setting": "TF1 cells [4]", "result": "drop in metabolic activity"}
    ]},
    {"smiles": "O=c1ccn([C@@H]2O[C@H](CO)[C@@H](O)[C@H]2O)c(=O)[nH]1", "note": "[uridine]", "values": [
      {"measurement": "rescue of brequinar-induced drop in metabolic activity", "setting": "mIDH2 TF1 cells; [6]", "result": "rescued"},
      {"measurement": "rescue of brequinar-induced drop in metabolic activity", "setting": "mIDH2 TF1 cells; uridine 1,000 μM, FIG. 2B", "result": "rescued"},
      {"measurement": "rescue of brequinar-induced drop in metabolic activity", "setting": "mIDH1 TF1 cells; [6]", "result": "rescued"},
      {"measurement": "rescue of brequinar-induced drop in metabolic activity", "setting": "mIDH1 TF1 cells; uridine 1,000 μM, FIG. 2B", "result": "rescued"}
    ]}
  ]
}
